# Experimental data taken from patent US20110053913A1, “Methods and Therapies for Alleviating Pain” (priority 2009, published 2011).
# How the values were obtained:
# [1] = test system: spinal alpha-2 receptors; test: Inhibition of spinal clonidine analgesia by alpha-2 receptor antagonists (tail flick / paw pressure); assay type: in vivo, rat; conditions: tail flick test, FIG. 12
# Procedure: Experiments were conducted using adult male Sprague-Dawley rats (Charles River, St. Constant, QC, Canada) weighing between 200-250 grams. Animals were housed individually in standard laboratory cages, maintained on a 12-hour light/dark cycle, and provided with food and water ad libitum. The surgical placement of chronic indwelling intrathecal catheters (polyethylene PE 10 tubing, 7.5 cm) into the spinal subarachnoid space was made under 4% halothane anesthesia, using the method of Yaksh and Rudy Physiol. Behav. 1976 7:1032-1036). […]
# The tail flick test (D'amour & Smith, J. Pharmacol. Exp. Ther. 1941 72:74-79) was used to measure the response to a thermal nociceptive stimulus. Radiant heat was applied to the distal third of the animal's tail and the response latency for tail withdrawal from the source was recorded using an analgesia meter (Owen et al., J. Pharmacol. Methods 1981 6:33-37)). […]
# The paw pressure test (Loomis et al., Pharm. Biochem. 1987 26:131-139) was used to measure the response to a mechanical nociceptive stimulus. Pressure was applied to the dorsal surface of the hind paw using an inverted air-filled syringe connected to a gauge and the value at which the animal withdrew its paw was recorded. […]
# [2] = test system: rats; test: Potentiation of morphine analgesia and acute morphine tolerance, tail flick and paw pressure tests; assay type: in vivo, rat
# Procedure: (§1) Experiments were conducted using adult male Sprague-Dawley rats (Charles River, St. Constant, QC, Canada) weighing between 200-250 grams. Animals were housed individually in standard laboratory cages, maintained on a 12-hour light/dark cycle, and provided with food and water ad libitum. The surgical placement of chronic indwelling intrathecal catheters (polyethylene PE 10 tubing, 7.5 cm) into the spinal subarachnoid space was made under 4% halothane anesthesia, using the method of Yaksh and Rudy Physiol. Behav. 1976 7:1032-1036). Specifically, the anesthetized animal was placed prone in a stereotaxic frame, a small incision made at the back of the neck, and the atlanto-occipital membrane overlying the cisterna magna was exposed and punctured with a blunt needle. The catheter was inserted through the cisternal opening and slowly advanced caudally to position its tip at the lumbar enlargement. The rostral end of the catheter was exteriorized at the top of the head and the wound closed with sutures. Animals were allowed 3-4 days recovery from surgery and only those free from neurological deficits, such as the hindlimb or forelimb paralysis or gross motor dysfunction, were included in the study. All drugs were injected intrathecally as solutions dissolved in physiological saline (0.9%) through the exteriorized portion of the catheter at a volume of 10 μl followed by a 10 μl volume of 0.9% saline to flush the catheter.
# (§2) The tail flick test (D'amour & Smith, J. Pharmacol. Exp. Ther. 1941 72:74-79) was used to measure the response to a thermal nociceptive stimulus. Radiant heat was applied to the distal third of the animal's tail and the response latency for tail withdrawal from the source was recorded using an analgesia meter (Owen et al., J. Pharmacol. Methods 1981 6:33-37)). The stimulus intensity was adjusted to yield baseline response latencies between 2-3 seconds. To minimize tail damage, a cutoff of 10 seconds was used as an indicator of maximum antinociception.
# (§3) The paw pressure test (Loomis et al., Pharm. Biochem. 1987 26:131-139) was used to measure the response to a mechanical nociceptive stimulus. Pressure was applied to the dorsal surface of the hind paw using an inverted air-filled syringe connected to a gauge and the value at which the animal withdrew its paw was recorded. A maximum cutoff pressure of 300 mmHg was used to avoid tissue damage. Previous experience has established that there is no significant interaction between the tail flick and paw pressure tests (Loomis et al., Can. J. Physiol. Pharmacol. 1985 63:656-662).
# The effects of ultra-low doses of atipemazole, yohimbine, idazoxan and mirtazapine, as well as the selective alpha-2A receptor antagonist BRL 44408, were also tested for potentiation of acute analgesic action of spinal or subcutaneous morphine. Acute opioid tolerance was induced by three serial intrathecal morphine injections (15 μg) or systemic morphine injections (2.5 mg/kg sc). Rats were administered morphine alone, a combination of morphine (15 μg intrathecally or 2.5 mg/kg sc) and an ultra low dose of atipemazole, yohimbine, idazoxan, mirtazapine, or BRL 44408. Results for atipemazole are depicted in FIGS. 2A, 2B, 11A and 11B. Results for yohimbine are depicted in FIGS. 6A and 6B. Results for idazoxan are depicted in FIGS. 10A and 10B. Results for mirtazapine are depicted in FIGS. 8A and 8B. Results for BRL 44408 are depicted in FIGS. 14A and 14B.
# For the in vivo studies, tail flick and paw pressure values were converted to a maximum percentage effect (M.P.E.): M.P.E.=100×[post-drug response−baseline response]/[maximum response−baseline response]. Data represented in the figures are expressed as mean (±S.E.M.). The ED50 values were determined using a non-linear regression analysis (Prism 2, GraphPad Software Inc., San Diego, Calif., USA). […]
# [3] = test system: rats; test: Analgesic effect of ultra-low dose alpha-2 receptor antagonist administered alone, tail flick and paw pressure tests; assay type: in vivo, rat
# Procedure: Baseline latencies were obtained every 5 minutes for 15 minutes prior to injection of either vehicle (saline 0.9%) or atipemazole and tested every 30 minutes for 3 hours. Data were converted to % maximum possible effect.
# as §1, §2, §3
# The analgesic effect of an ultra-low dose of an alpha-2 receptor antagonist administered alone was examined. Atipemazole was administered systemically, in three successive administrations, at 20 ng/kg or 200 ng/kg.
# The analgesic effect of an ultra-low dose of an alpha-2A receptor antagonist administered alone was also examined. BRL 44408 was administered intrathecally, in a single administration, at 1.65 ng. In another study, three successive doses of BRL 44408 (1.65 ng) were administered intrathecally.
# For the in vivo studies, tail flick and paw pressure values were converted to a maximum percentage effect (M.P.E.): M.P.E.=100×[post-drug response−baseline response]/[maximum response−baseline response]. Data represented in the figures are expressed as mean (±S.E.M.). The ED50 values were determined using a non-linear regression analysis (Prism 2, GraphPad Software Inc., San Diego, Calif., USA). Statistical significance (p<0.05, 0.01. or 0.001) was determined using a one-way analysis of variance followed by a Student Newman-Keuls post hoc test for multiple comparisons between groups.
# [4] = test system: rats; test: Formalin test, persistent inflammatory pain model; assay type: in vivo, rat; conditions: atipemazole alone sc 20 minutes prior to 1% formalin into hind paw; dark phase; N=4; FIGS. 15A, 15B
# Procedure: In a further experiment, the analgesic effect of atipemazole was examined using the formalin test, a persistent inflammatory pain model. The experiment was conducted with rats during the dark phase of the light-dark cycle. Rats were administered 1% formalin and pain behaviour was assessed by a weighted score. Atipemazole, morphine, or vehicle was injected by subcutaneous injection 20 minutes prior to formalin injection into the plantar surface of the rat hind paw. The behavior was evaluated in 5 min intervals, and the severity of the response was determined.
# The formalin test is a widely used tonic model of continuous pain resulting from formalin-induced tissue injury. It is a useful model, particularly for the screening of novel compounds, since it encompasses inflammatory, neurogenic, and central mechanisms of nociception. We used 1% formalin and assessed pain behavior by a weighted score. […]
# Briefly, the nociceptive behavior was assessed as follows: (1) no favouring of the injected hind paw, (2) favouring, (3) complete elevation of the hind paw from the floor, and (4) licking or flinching. The behavior was evaluated in 5 min intervals, and the severity of the response was determined by the following formula: (0×the time spent in category 1, 1×the time spent in category 2, 2×the time spent in category 3, 3×the time spent in category 4).
# [5] = test system: rats; conditions: morphine, cited from earlier work
smiles,measurement,setting,value
"CC1c2ccccc2CN1CC1=NCCN1.O=C(O)/C=C\C(=O)O (stereo not drawn) [BRL 44408, 2-[2H-(1-Methyl-1,3-dihydroisoindole)methyl]-4,5-dihydroimidazole maleate]",antagonism of clonidine analgesia,[1]; BRL 44408 3.3 μg with clonidine 13.3 μg intrathecally,did not antagonize clonidine
same,antagonism of clonidine analgesia,[1]; BRL 44408 16.5 μg with clonidine 13.3 μg intrathecally,antagonized clonidine analgesia
same,effect on morphine analgesia after a single administration,"[2]; BRL 44408 1.65 ng with morphine 15 μg intrathecally once, relative to morphine alone, FIGS. 13A, 13B",significantly increased morphine analgesia
same,effect on analgesic action of morphine in the acute tolerance study,"[2]; BRL 44408 1.65 ng with morphine intrathecally, three injections at 90 minute intervals, FIGS. 14A, 14B",increased the acute analgesic action of morphine
same,"analgesia after a single administration, antagonist alone","[3]; BRL 44408 1.65 ng intrathecally alone, single administration, relative to saline, FIGS. 13A, 13B","significant analgesia, relative to saline administration, after 60 minutes"
same,"course and duration of analgesia after a single administration, antagonist alone","[3]; BRL 44408 1.65 ng intrathecally alone, single administration, FIGS. 13A, 13B",increased and persisted for the duration of the study (180 minutes)
CCC1(c2cnc[nH]2)Cc2ccccc2C1 [atipemazole],effect on acute tolerance to the analgesic actions of spinal morphine,"[2]; atipemazole 0.8 ng with morphine 15 μg intrathecally, three injections at 90 minute intervals, FIGS. 2A, 2B",prevented the decline of the analgesic effect of morphine
same,effect on acute morphine analgesia,"[2]; atipemazole 0.8 or 0.08 ng with morphine 15 μg intrathecally, FIGS. 3A, 3B",potentiates opioid analgesia
same,effect on acute tolerance to morphine (loss of response),"[2]; atipemazole 20 or 200 ng/kg sc with morphine 2.5 mg/kg sc, three injections at 90 minute intervals, FIGS. 11A, 11B",significantly reduced the loss of response to morphine alone
same,"analgesic response, antagonist alone, repeated administration","[3]; atipemazole 0.8 ng intrathecally alone at 90 minute intervals, FIGS. 2A, 2B",incremental but weak analgesic response
same,"analgesic effect, antagonist alone","[3]; atipemazole 0.8 ng intrathecally alone, FIGS. 3A, 3B","weak, albeit insignificant, analgesic effect"
same,"antinociceptive effect in the tail flick test, dark phase","[3]; atipemazole 200 ng/kg sc, rats on reverse light/dark cycle, administered during the dark phase, tested every 30 minutes for 3 hours",did not produce a significant antinociceptive effect
same,"analgesic response in the tail flick test, antagonist alone","[3]; atipemazole 20 and 200 ng/kg sc alone at 90 minute intervals, tail flick, FIG. 11A",delayed analgesic response
same,analgesia in the formalin test (weighted pain score),[4],as effective as morphine
c1ccc2c(c1)OCC(C1=NCCN1)O2 (stereo not drawn) [idazoxan],"analgesic response, antagonist alone, repeated administration","[3]; idazoxan intrathecally alone, ultra-low dose, repeated",no significant analgesic response
CN1CC[C@]23c4c5ccc(O)c4O[C@H]2[C@@H](O)C=C[C@H]3[C@H]1C5 [morphine],analgesic response to repeated morphine,"[2]; morphine 2.5 mg/kg sc alone, three injections at 90 minute intervals, both tests, FIGS. 11A, 11B",rapid decay of the analgesic response
same,decline of the analgesic effect of morphine observed after the first injection,"[2]; three successive intrathecal doses of morphine 15 μg at 90 minute intervals, end of the 240 minute test period, FIGS. 2A, 2B",~80%
same,ED50 dose during the dark phase,[5]; dark phase of light-dark cycle,0.25 mg/kg
same,ED50 dose during the light phase,[5]; light phase of light-dark cycle,5 mg/kg
same,potency in the dark phase compared to the light phase,[5]; nociceptive testing,10 fold
COC(=O)[C@@H]1[C@H]2C[C@H]3c4[nH]c5ccccc5c4CCN3C[C@@H]2CC[C@@H]1O [yohimbine],"analgesic response, antagonist alone, repeated administration","[3]; yohimbine 0.024 ng intrathecally alone at 90 minute intervals, FIGS. 6A, 6B",no significant analgesic response
